{"source": "paper PMC6327951", "about": "(The Journal of organic chemistry, 2018)", "key": {"SpNanB [1]": {"molecular_target": "T1, SpNanB (Streptococcus pneumoniae serotype 4, UniProt Q54727)", "T1 sequence (Q54727 30-697)": "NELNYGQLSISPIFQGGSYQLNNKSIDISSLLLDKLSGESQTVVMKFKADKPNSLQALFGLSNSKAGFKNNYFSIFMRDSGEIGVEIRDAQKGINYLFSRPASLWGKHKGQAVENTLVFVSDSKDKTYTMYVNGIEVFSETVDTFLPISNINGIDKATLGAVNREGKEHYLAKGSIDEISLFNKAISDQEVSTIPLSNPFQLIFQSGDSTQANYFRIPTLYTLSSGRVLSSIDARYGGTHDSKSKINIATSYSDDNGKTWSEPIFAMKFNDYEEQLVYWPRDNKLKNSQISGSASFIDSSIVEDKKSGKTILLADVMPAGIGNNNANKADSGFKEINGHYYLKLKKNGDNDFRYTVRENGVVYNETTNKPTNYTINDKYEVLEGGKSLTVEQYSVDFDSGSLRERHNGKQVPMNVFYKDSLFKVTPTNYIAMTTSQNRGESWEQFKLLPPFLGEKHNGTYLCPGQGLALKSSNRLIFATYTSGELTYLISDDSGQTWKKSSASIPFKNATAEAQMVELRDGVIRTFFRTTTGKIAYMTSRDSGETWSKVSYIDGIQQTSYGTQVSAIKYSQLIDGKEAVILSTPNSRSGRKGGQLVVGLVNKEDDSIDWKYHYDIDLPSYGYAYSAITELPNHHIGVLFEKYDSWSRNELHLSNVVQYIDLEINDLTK", "conditions": "cited from earlier work"}, "SpNanC [2]": {"molecular_target": "T2, SpNanC (Streptococcus pneumoniae, UniProt A0A0H2UQE4)", "conditions": "cited from earlier work"}, "IT-sialidase RgNanH": {"tested_on": "IT-sialidase RgNanH", "conditions": "cited from earlier work"}, "[3]": {"tested_on": "SpNanA, SpNanB, SpNanC, PmST1, BiNanH2, AuSialidase, CpNanI, VcSialidase, hNEU2", "assay": "Sialidase inhibition assay at 1 mM, whole panel of sialidases tested", "assay_type": "biochemical", "conditions": "inhibitor 1 mM"}, "SpNanB [4]": {"molecular_target": "T1, SpNanB", "assay": "SpNanB-catalyzed hydrolysis assay", "assay_type": "biochemical", "conditions": "10 mM compound, SpNanB 1 mg/mL, NaOAc pH 6.0 or Tris-HCl pH 7.0, 24 h"}, "SpNanA [5]": {"molecular_target": "T3, SpNanA (Streptococcus pneumoniae, UniProt P62575)", "T3 sequence (P62575 54-1035)": "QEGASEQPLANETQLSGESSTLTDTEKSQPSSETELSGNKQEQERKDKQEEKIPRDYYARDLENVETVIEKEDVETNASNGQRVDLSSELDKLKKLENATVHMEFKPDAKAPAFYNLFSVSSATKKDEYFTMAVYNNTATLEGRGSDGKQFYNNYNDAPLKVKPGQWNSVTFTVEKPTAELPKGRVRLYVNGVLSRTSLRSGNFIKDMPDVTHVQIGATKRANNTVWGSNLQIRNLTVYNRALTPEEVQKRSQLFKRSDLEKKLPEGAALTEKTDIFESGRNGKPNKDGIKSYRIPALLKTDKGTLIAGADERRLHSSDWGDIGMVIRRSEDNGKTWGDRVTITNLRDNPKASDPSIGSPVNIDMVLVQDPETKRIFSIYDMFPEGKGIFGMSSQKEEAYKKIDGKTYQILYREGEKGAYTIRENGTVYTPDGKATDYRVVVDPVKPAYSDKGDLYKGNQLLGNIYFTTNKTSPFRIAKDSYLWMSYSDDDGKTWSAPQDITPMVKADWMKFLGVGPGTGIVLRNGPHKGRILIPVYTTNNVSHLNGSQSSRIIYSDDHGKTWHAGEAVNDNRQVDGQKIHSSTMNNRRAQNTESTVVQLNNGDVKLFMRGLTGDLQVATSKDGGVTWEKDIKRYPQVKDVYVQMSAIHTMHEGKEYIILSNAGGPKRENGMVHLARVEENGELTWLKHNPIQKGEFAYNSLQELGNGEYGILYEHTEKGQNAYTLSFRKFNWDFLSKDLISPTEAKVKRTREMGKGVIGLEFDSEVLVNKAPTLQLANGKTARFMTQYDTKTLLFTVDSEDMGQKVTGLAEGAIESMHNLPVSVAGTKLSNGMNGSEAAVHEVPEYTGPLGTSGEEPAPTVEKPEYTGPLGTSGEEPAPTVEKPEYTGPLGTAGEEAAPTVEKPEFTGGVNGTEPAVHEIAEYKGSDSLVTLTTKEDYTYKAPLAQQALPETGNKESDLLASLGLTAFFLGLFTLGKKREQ", "assay": "Sialidase inhibition assay, 384-well colorimetric, Neu5Acα2–3GalβpNP substrate", "assay_type": "biochemical", "conditions": "inhibitor 1 mM"}, "SpNanB [6]": {"molecular_target": "T1, SpNanB", "assay": "Sialidase inhibition assay, 384-well colorimetric, Neu5Acα2–3GalβpNP substrate", "assay_type": "biochemical", "conditions": "for Inhibitory activity against SpNanB: inhibitor 1 mM"}, "SpNanC [7]": {"molecular_target": "T2, SpNanC", "assay": "Sialidase inhibition assay, 384-well colorimetric, Neu5Acα2–3GalβpNP substrate", "assay_type": "biochemical"}, "AuSialidase": {"molecular_target": "AuSialidase (Paenarthrobacter ureafaciens, UniProt Q5W7Q2)", "assay": "Sialidase inhibition assay, 384-well colorimetric, Neu5Acα2–3GalβpNP substrate", "assay_type": "biochemical, Arthrobacter ureafaciens", "conditions": "inhibitor 1 mM"}, "VcSialidase": {"molecular_target": "VcSialidase (Vibrio cholerae serotype O1, UniProt P0C6E9)", "sequence (P0C6E9 25-781)": "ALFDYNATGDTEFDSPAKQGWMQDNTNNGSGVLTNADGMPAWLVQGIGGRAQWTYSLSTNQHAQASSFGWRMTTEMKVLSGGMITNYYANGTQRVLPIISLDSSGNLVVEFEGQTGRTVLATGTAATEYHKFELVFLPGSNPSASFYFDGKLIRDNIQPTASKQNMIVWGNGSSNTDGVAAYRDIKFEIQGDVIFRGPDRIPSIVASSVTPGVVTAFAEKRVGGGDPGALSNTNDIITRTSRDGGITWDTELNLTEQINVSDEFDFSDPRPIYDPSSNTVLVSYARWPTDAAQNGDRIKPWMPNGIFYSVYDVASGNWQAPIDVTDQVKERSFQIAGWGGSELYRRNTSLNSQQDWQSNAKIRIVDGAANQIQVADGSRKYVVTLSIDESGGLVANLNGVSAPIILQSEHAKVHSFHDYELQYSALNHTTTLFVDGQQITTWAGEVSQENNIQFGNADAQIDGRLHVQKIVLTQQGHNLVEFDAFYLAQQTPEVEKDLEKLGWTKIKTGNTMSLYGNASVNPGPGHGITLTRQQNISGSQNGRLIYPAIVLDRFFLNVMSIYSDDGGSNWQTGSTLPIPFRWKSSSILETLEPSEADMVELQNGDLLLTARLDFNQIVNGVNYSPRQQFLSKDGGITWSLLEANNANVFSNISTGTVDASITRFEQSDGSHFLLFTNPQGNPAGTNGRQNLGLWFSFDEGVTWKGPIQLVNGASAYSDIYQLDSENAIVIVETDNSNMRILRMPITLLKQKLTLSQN", "assay": "Sialidase inhibition assay, 384-well colorimetric, Neu5Acα2–3GalβpNP substrate", "assay_type": "biochemical"}, "SpNanA [8]": {"molecular_target": "T3, SpNanA", "conditions": "cited from earlier work"}}, "note": "“Also recorded” adds a separate entry of the source. Like-named read-outs stand apart in the source and are kept apart here."}
{"smiles": "O=S(=O)(O)CCNC1CCCCC1", "note": "[CHES, 2-N-Cyclohexylaminoethanesulfonic acid]", "values": [{"measurement": "Inhibition against SpNanB", "setting": "SpNanB [1]", "result": "weak inhibition"}]}
{"smiles": "CC(=O)N[C@H]1[C@H]([C@H](O)[C@H](O)CO)OC(C(=O)O)=C[C@@H]1O", "note": "[Neu5Ac2en, 2,3-dehydro-2-deoxy-N-acetylneuraminic acid]", "values": [{"measurement": "Inhibition against SpNanB", "setting": "SpNanB [1]; other reports", "result": "millimolar inhibitor"}, {"measurement": "IC50 against SpNanC", "setting": "SpNanC [2]", "result": "submillimolar range"}]}
{"smiles": "CCOC(=O)C1=C[C@@H](OC(CC)CC)[C@H](NC(C)=O)[C@@H](N)C1", "note": "[Oseltamivir]", "values": [{"measurement": "Inhibitory activity against SpNanB", "setting": "SpNanB [1]; concentration up to 7.5 mM", "result": "did not show inhibitory activity"}, {"measurement": "Inhibitory activity against SpNanC", "setting": "SpNanC [2]; concentration up to 7.5 mM", "result": "did not show inhibitory activity"}, {"measurement": "Inhibition of RgNanH", "setting": "IT-sialidase RgNanH", "result": "inhibited"}]}
{"smiles": "COc1cc2oc(-c3ccc(O)cc3O)c(CC=C(C)C)c(=O)c2c(O)c1/C=C/C(C)C", "note": "[artocarpin]", "values": [{"measurement": "Inhibition against SpNanB", "setting": "SpNanB [1]", "result": "reported to be inhibitors"}]}
{"smiles": "CC(=O)N[C@H]1[C@H]2O[C@@](C(=O)O)(C[C@@H]1O)O[C@@H]2[C@H](O)CO", "note": "[compound 1, 5-Acetamido-2,7-anhydro-3,5-dideoxy-α-D-glycero-D-galacto-non-2-ulopyranosonic acid]", "values": [{"measurement": "Inhibition against any sialidases tested", "setting": "[3]", "result": "no significant inhibition"}, {"measurement": "Hydrolysis by SpNanB", "setting": "SpNanB [4]", "result": "can be hydrolyzed by SpNanB; also recorded: most 2,7-anhydro-Neu5Ac (1) was converted to Neu5Ac"}]}
{"smiles": "O=C(N[C@H]1[C@H]2O[C@@](C(=O)O)(C[C@@H]1O)O[C@@H]2[C@H](O)CO)C(F)(F)F", "note": "[compound 2, 2,7-Anhydro-3,5-dideoxy-5-trifluoroacetamido-α-D-glycero-D-galacto-non-2-ulopyranosonic acid]", "values": [{"measurement": "Inhibitory activity against SpNanA", "setting": "SpNanA [5]", "result": "some inhibitory activity"}, {"measurement": "IC50", "setting": "SpNanB [6]", "result": "250 to 500", "unit": "µM"}, {"measurement": "Inhibitory activity against SpNanB", "setting": "SpNanB [6]", "result": "some inhibitory activity"}, {"measurement": "IC50", "setting": "SpNanC [7]", "result": "> 1", "unit": "mM"}, {"measurement": "Inhibitory activity against AuSialidase", "setting": "AuSialidase", "result": "some inhibitory activity"}, {"measurement": "IC50", "setting": "VcSialidase", "result": "500 to 1000", "unit": "µM"}, {"measurement": "Inhibitory activity against VcSialidase", "setting": "VcSialidase; inhibitor 1 mM", "result": "some inhibitory activity"}]}
{"smiles": "N[C@H]1[C@H]2O[C@@](C(=O)O)(C[C@@H]1O)O[C@@H]2[C@H](O)CO", "note": "[compound 3, 5-Amino-2,7-anhydro-3,5-dideoxy-α-D-glycero-D-galacto-non-2-ulopyranosonic acid]", "values": [{"measurement": "Inhibition against any sialidases tested", "setting": "[3]", "result": "no significant inhibition"}]}
{"smiles": "O=C(N[C@H]1[C@H]2O[C@@](C(=O)O)(C[C@@H]1O)O[C@@H]2[C@H](O)CO)C1CCCCC1", "note": "[compound 4, 2,7-Anhydro-5-cyclohexylamido-3,5-dideoxy-α-D-glycero-D-galacto-non-2-ulopyranosonic acid]", "values": [{"measurement": "Inhibitory activity against SpNanA", "setting": "SpNanA [5]", "result": "noticeable inhibitory activity"}, {"measurement": "Inhibitory activity against SpNanB", "setting": "SpNanB [6]", "result": "noticeable inhibitory activity"}, {"measurement": "Inhibitory activity against SpNanC", "setting": "SpNanC [7]; inhibitor 1 mM", "result": "noticeable inhibitory activity"}, {"measurement": "Hydrolysis by SpNanB", "setting": "SpNanB [4]", "result": "resistant to SpNanB hydrolysis; also recorded: remained intact"}]}
{"smiles": "O=C(CCc1ccccc1)C[C@@H]1C[C@@H](c2ccccc2)c2c(cc(/C=C/c3ccccc3)oc2=O)O1", "note": "[katsumadain A]", "values": [{"measurement": "Inhibition against SpNanB", "setting": "SpNanB [1]", "result": "reported to be inhibitors"}]}
{"smiles": "O=C(CCCCCCCCc1ccc(O)c(O)c1)c1c(O)cccc1O", "note": "[malabaricone C]", "values": [{"measurement": "IC50 against SpNanB", "setting": "SpNanB [1]", "result": "submicromolar range"}, {"measurement": "IC50 against SpNanC", "setting": "SpNanC [2]", "result": "submicromolar range"}, {"measurement": "IC50 against SpNanA", "setting": "SpNanA [8]", "result": "submicromolar range"}]}
